Values of other authors as cited in patent US20160220684A1, “COMPOSITION AND METHOD FOR RELIEVING PAIN AND INFLAMMATION, TREATMENT OF ERECTILE DYSFUNCTION, AND TREATMENT OF ACNE” (priority 2014, published 2016).

System: intractable pain
Conditions: patients with metastatic cancer refractory to opioids; article published May 28, 2015

Compound: O=C(c1ccccc1)c1ccc2n1CCC2C(=O)O (racemic) [keterolac, (±)-5-benzoyl-2,3-dihydro-1H-pyrrolizine-1-carboxylic acid, compounded with 2-amino-2-(hydroxymethyl)-1,3-propanediol]
- analgesic effectiveness in intractable pain: only effective non-opiod analgesic
